Measured values: patent publication US20260216170A1, “TETRAHYDROISOQUINOLINE HETEROBIFUNCTIONAL BCL-XL DEGRADERS” (Treeline Biosciences, Inc., priority 2023, published 2026)

Molecular target: T1, Human BCL-XL protein (N-terminal HiBiT tagged BCL-XL expressed in HT1080 cells) (Homo sapiens, UniProt Q07817)
T1 construct: expressed in transfected cells; host or cells: HT-1080 (ATCC CCL-121), stably transduced with lentivirus pLV-UBC-N-HiBiT-BCL-XL-PGK-puro and selected with puromycin
Assay: HiBiT Based Degradation Assay
Type: cell-based
Details: 24 hours incubation; for DC50: BCL-XL degradation, HT1080 cells expressing N-HiBiT-BCL-XL, normalized with DMSO control, geometric mean for multiple data points, read-out: EC50 (24 h); for Ymin (24 h): bottom of BCL-XL degradation curve (remaining HiBiT-BCL-XL signal vs DMSO control), HT1080 cells
Method in brief: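 BCL-XL degradation was read as Nano-Glo HiBiT lytic luminescence relative to DMSO after a 24 h compound treatment of HT1080 cells carrying stably integrated N-HiBiT-BCL-XL. EC50 values come from four-parameter logistic curves, with the hook-curve minimum fixed as bottom, and are geometric means where tested repeatedly.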

T1 sequence (Q07817 whole entry): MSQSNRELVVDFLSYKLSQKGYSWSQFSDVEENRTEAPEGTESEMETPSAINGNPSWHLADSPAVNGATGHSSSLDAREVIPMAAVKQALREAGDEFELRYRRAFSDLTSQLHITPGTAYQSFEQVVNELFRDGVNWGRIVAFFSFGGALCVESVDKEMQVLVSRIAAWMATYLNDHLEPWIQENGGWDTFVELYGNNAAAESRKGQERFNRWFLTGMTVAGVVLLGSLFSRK

| Compound | DC50 | Ymin (24 h) |
| --- | --- | --- |
| Cc1cc(N(C)CCCC2CCN(CC(=O)Nc3ccc4c(C5CCC(=O)NC5=O)nn(C)c4c3)CC2)ccc1-c1ccc(N2CCc3cccc(C(=O)Nc4nc5ccccc5s4)c3C2)nc1C(=O)O (stereo not shown) [Compound 222, 6-(8-(benzo[d]thiazol-2-ylcarbamoyl)-3,4-dihydroisoquinolin-2(1H)-yl)-3-(4-((3-(1-(2-((3-(2,6-dioxopiperidin-3-yl)-1-methyl-1H-indazol-6-yl)amino)-2-oxoethyl)piperidin-4-yl)propyl)(methyl)amino)-2-methylphenyl)picolinic acid] | < 10 nM | A (Ymin < 30%) |
| Cn1nc(C2CCC(=O)NC2=O)c2ccc(NC(=O)CN3CCC4(CC3)CC(Oc3ccc(-c5ccc(N6CCc7cccc(C(=O)Nc8nc9ccccc9s8)c7C6)nc5C(=O)O)c(C(F)(F)F)c3)C4)c(F)c21 (stereo not shown) [Compound 189] | < 10 nM | B (30% ≤ Ymin < 50%) |
| COc1c(NC(=O)CN2CCC(CC[C@@H](C)Oc3ccc(-c4ccc(N5CCc6cccc(C(=O)Nc7nc8ccccc8s7)c6C5)nc4C(=O)O)c(C)c3)CC2)ccc2c(C3CCC(=O)NC3=O)nn(C)c12 (single isomer, unassigned) [Compound 223b] | 10 to 100 nM | A (Ymin < 30%) |
| Cc1cc(OCCCCC2CCN(CC(=O)Nc3ccc4c(C5CCC(=O)NC5=O)nn(C)c4c3)CC2)ccc1-c1ccc(N2CCc3cccc(C(=O)Nc4nc5ccccc5s4)c3C2)nc1C(=O)O (stereo not shown) [Compound 116, 6-[8-(1,3-benzothiazol-2-ylcarbamoyl)-3,4-dihydro-1H-isoquinolin-2-yl]-3-[4-[4-[1-[2-[[3-(2,6-dioxo-3-piperidyl)-1-methyl-indazol-6-yl]amino]-2-oxo-ethyl]-4-piperidyl]butoxy]-2-methyl-phenyl]pyridine-2-carboxylic acid] | < 10 nM | B (30% ≤ Ymin < 50%) |
| COc1c(NC(=O)CN2CCC3(CC2)CC(COc2cccc(-c4ccc(N5CCc6cccc(C(=O)Nc7nc8ccccc8s7)c6C5)nc4C(=O)O)c2C)C3)ccc2c(C3CCC(=O)NC3=O)nn(C)c12 (stereo not shown) [Compound 127] | 10 to 100 nM | A (Ymin < 30%) |
| Cc1c(OCC[C@@H]2C[C@@H]3CN(CC(=O)Nc4ccc5c(C6CCC(=O)NC6=O)nn(C)c5c4)C[C@@H]3C2)cccc1-c1ccc(N2CCc3cccc(C(=O)Nc4nc5ccccc5s4)c3C2)nc1C(=O)O (stereo partly shown) [Compound 173a] | < 10 nM | B (30% ≤ Ymin < 50%) |
| Cn1nc(C2CCC(=O)NC2=O)c2ccc(NC(=O)CN3CCC4(CC3)CC(Oc3cccc(-c5ccc(N6CCc7ccnc(C(=O)Nc8nc9ccccc9s8)c7C6)nc5C(=O)O)c3C(F)(F)F)C4)nc21 (stereo not shown) [Compound 202, 6-(8-(benzo[d]thiazol-2-ylcarbamoyl)-3,4-dihydro-2,7-naphthyridin-2(1H)-yl)-3-(3-((7-(2-((3-(2,6-dioxopiperidin-3-yl)-1-methyl-1H-pyrazolo[3,4-b]pyridin-6-yl)amino)-2-oxoethyl)-7-azaspiro[3.5]nonan-2-yl)oxy)-2-(trifluoromethyl)phenyl)picolinic acid] | < 10 nM | B (30% ≤ Ymin < 50%) |
| C[C@@H](CCC1CCN(CC(=O)Nc2ccc3c(C4CCC(=O)NC4=O)nn(C)c3c2)CC1)Oc1ccc(-c2ccc(N3CCc4cccc(C(=O)Nc5nc6ccccc6s5)c4C3)nc2C(=O)O)c(C(F)(F)F)c1 (single isomer, unassigned) [Compound 138a] | < 10 nM | B (30% ≤ Ymin < 50%) |
| Cc1c(OC2CC3(CCN(CC(=O)Nc4ccc5c(C6CCC(=O)NC6=O)nn(C)c5c4)CC3)C2)cccc1-c1ccc(N2CCc3ccnc(C(=O)Nc4nc5ccccc5s4)c3C2)nc1C(=O)O (stereo not shown) [Compound 163, 6-[8-(1,3-benzothiazol-2-ylcarbamoyl)-3,4-dihydro-1H-2,7-naphthyridin-2-yl]-3-[3-[[7-[2-[[3-(2,6-dioxo-3-piperidyl)-1-methyl-indazol-6-yl]amino]-2-oxo-ethyl]-7-azaspiro[3.5]nonan-2-yl]oxy]-2-methyl-phenyl]pyridine-2-carboxylic acid] | < 10 nM | B (30% ≤ Ymin < 50%) |
| Cc1c(OCCC2CC3(CCN(CC(=O)Nc4ccc5c(C6CCC(=O)NC6=O)nn(C)c5c4)CC3)C2)cccc1-c1ccc(N2CCc3cccc(C(=O)Nc4nc5ccccc5s4)c3C2)nc1C(=O)O (stereo not shown) [Compound 114, 6-(8-(benzo[d]thiazol-2-ylcarbamoyl)-3,4-dihydroisoquinolin-2(1H)-yl)-3-(3-(2-(7-(2-((3-(2,6-dioxopiperidin-3-yl)-1-methyl-1H-indazol-6-yl)amino)-2-oxoethyl)-7-azaspiro[3.5]nonan-2-yl)ethoxy)-2-methylphenyl)picolinic acid] | 10 to 100 nM | B (30% ≤ Ymin < 50%) |
| Cc1cc(OC2CC3(CCN(CC(=O)Nc4ccc5c(C6CCC(=O)NC6=O)nn(C)c5c4)CC3)C2)ccc1-c1ccc(N2CCc3cccc(C(=O)Nc4nc5ccccc5s4)c3C2)nc1C(=O)O (stereo not shown) [Compound 112, 6-[8-(1,3-benzothiazol-2-ylcarbamoyl)-3,4-dihydro-1H-isoquinolin-2-yl]-3-[4-[[7-[2-[[3-(2,6-dioxo-3-piperidyl)-1-methyl-indazol-6-yl]amino]-2-oxo-ethyl]-7-azaspiro[3.5]nonan-2-yl]oxy]-2-methyl-phenyl]pyridine-2-carboxylic acid] | < 10 nM | A (Ymin < 30%) |
| Cc1cc(OC[C@@H]2C[C@@H]2CC2CCN(CC(=O)Nc3ccc4c(C5CCC(=O)NC5=O)nn(C)c4c3)CC2)ccc1-c1ccc(N2CCc3cccc(C(=O)Nc4nc5ccccc5s4)c3C2)nc1C(=O)O (single isomer, unassigned) [Compound 1002d] | < 10 nM | A (Ymin < 30%) |
| Cn1nc(C2CCC(=O)NC2=O)c2ccc(NC(=O)CN3CCC4(CC3)CC(COc3cccc(-c5ccc(N6CCc7cccc(C(=O)Nc8nc9ccccc9s8)c7C6)nc5C(=O)O)c3C(F)(F)F)C4)cc21 (stereo not shown) [Compound 132, 6-(8-(benzo[d]thiazol-2-ylcarbamoyl)-3,4-dihydroisoquinolin-2(1H)-yl)-3-(3-((7-(2-((3-(2,6-dioxopiperidin-3-yl)-1-methyl-1H-indazol-6-yl)amino)-2-oxoethyl)-7-azaspiro[3.5]nonan-2-yl)methoxy)-2-(trifluoromethyl)phenyl)picolinic acid] | 10 to 100 nM | B (30% ≤ Ymin < 50%) |
| Cc1c(OCCCC2CCN(CC(=O)Nc3ccc4c(C5CCC(=O)NC5=O)nn(C)c4n3)CC2)cccc1-c1ccc(N2CCc3cccc(C(=O)Nc4nc5ccccc5s4)c3C2)nc1C(=O)O (stereo not shown) [Compound 101] | 10 to 100 nM | C (50% ≤ Ymin < 70%) |
| Cc1cc(OCC2CC3(CCN(CC(=O)Nc4ccc5c(C6CCC(=O)NC6=O)nn(C)c5c4)CC3)C2)ccc1-c1ccc(N2CCc3ccnc(C(=O)Nc4nc5ccccc5s4)c3C2)nc1C(=O)O (stereo not shown) [Compound 135, 6-[8-(1,3-benzothiazol-2-ylcarbamoyl)-3,4-dihydro-1H-2,7-naphthyridin-2-yl]-3-[4-[[7-[2-[[3-(2,6-dioxo-3-piperidyl)-1-methyl-indazol-6-yl]amino]-2-oxo-ethyl]-7-azaspiro[3.5]nonan-2-yl]methoxy]-2-methyl-phenyl]pyridine-2-carboxylic acid] | < 10 nM | A (Ymin < 30%) |
| Cc1c(OCC2CC3(CCN(CCCc4ccc5c(C6CCC(=O)NC6=O)nn(C)c5c4)CC3)C2)cccc1-c1ccc(N2CCc3cccc(C(=O)Nc4nc5ccccc5s4)c3C2)nc1C(=O)O (stereo not shown) [Compound 149, 6-[8-(1,3-benzothiazol-2-ylcarbamoyl)-3,4-dihydro-1H-isoquinolin-2-yl]-3-[3-[[7-[3-[3-(2,6-dioxo-3-piperidyl)-1-methyl-indazol-6-yl]propyl]-7-azaspiro[3.5]nonan-2-yl]methoxy]-2-methyl-phenyl]pyridine-2-carboxylic acid] | < 10 nM | A (Ymin < 30%) |
| Cc1c(OCCN2CCCC23CCN(CC(=O)Nc2ccc4c(C5CCC(=O)NC5=O)nn(C)c4c2)CC3)cccc1-c1ccc(N2CCc3cccc(C(=O)Nc4nc5ccccc5s4)c3C2)nc1C(=O)O (stereo not shown) [Compound 177] | < 10 nM | B (30% ≤ Ymin < 50%) |
| Cc1c(NCCCC2CCN(CC(=O)Nc3ccc4c(C5CCC(=O)NC5=O)nn(C)c4c3)CC2)cccc1-c1ccc(N2CCc3cccc(C(=O)Nc4nc5ccccc5s4)c3C2)nc1C(=O)O (stereo not shown) [Compound 217] | < 10 nM | B (30% ≤ Ymin < 50%) |
| Cc1cc(OC2CC3(CCN(CC(=O)Nc4ccc5c(C6CCC(=O)NC6=O)nn(C)c5n4)CC3)C2)ccc1-c1ccc(N2CCc3cccc(C(=O)Nc4nc5ccccc5s4)c3C2)nc1C(=O)O (stereo not shown) [Compound 195] | < 10 nM | B (30% ≤ Ymin < 50%) |
| Cc1c(OC2CC3(CCN(CC(=O)Nc4ccc5c(C6CCC(=O)NC6=O)nn(C)c5n4)CC3)C2)cccc1-c1ccc(N2CCc3ccnc(C(=O)Nc4nc5ccccc5s4)c3C2)nc1C(=O)O (stereo not shown) [Compound 207, 6-[8-(1,3-benzothiazol-2-ylcarbamoyl)-3,4-dihydro-1H-2,7-naphthyridin-2-yl]-3-[3-[[7-[2-[[3-(2,6-dioxo-3-piperidyl)-1-methyl-pyrazolo[3,4-b]pyridin-6-yl]amino]-2-oxo-ethyl]-7-azaspiro[3.5]nonan-2-yl]oxy]-2-methyl-phenyl]pyridine-2-carboxylic acid] | < 10 nM | B (30% ≤ Ymin < 50%) |
